This is an account of results in patent publication US20250122541A1, “ENZYMATIC AND CHEMICAL CATALYSIS FOR PRODUCTION FROM GLUCOSE OF THE PHARMACEUTICAL PRECURSOR, S-3-HYDROXY- Y -BUTYROLACTONE HBL” (The United States, as represented by the Secretary of …, priority 2023, published 2025).

A short description of series [1]: Half-life of BPP followed spectroscopically at 265 nm. The series is classed as physicochemical. Particulars: phosphate buffer (enzyme-free ultrafiltrate of the reaction), pH 6, 0.1 M phosphate, first-order decay, after removal of D1*D2D3 by ultrafiltration, read-out: half-life (t1/2). The procedure: The synthesis and t1/2 of BPP was determined spectroscopically at 265 nm. The synthesis of BPP with D1*D2D3 sonicate and 10 mM glucosone in a 500 μL reaction was followed until the absorbance reached ˜1.4 (about 14 minutes). The reaction was then passed through a 3,000 MWCO Nanosep centrifugal filter (PALL Life Sciences) by centrifuging for 4 minutes at 14,000×g and 200 μL of filtrate followed at A265 every 4 s. The decay of A265 was normalized to the highest and lowest measured values, with the highest A265 set to 1 and the lowest to 0. To determine whether the t1/2 was 0th, 1st or 2nd order, the natural log of the data was plotted against time. After determining that the decay followed 1st-order decay, t1/2 was calculated using the Solver add-in for Microsoft Excel, minimizing the sum of squared differences between the measured and modeled data calculated using Equation 1.

The nature of series [2]: Partition coefficient of HBL extraction from aqueous solution into organic solvent (GC/FID). The series is classed as physicochemical. The source says: One potential application of HBL, which may have high value, is as a pharmaceutical precursor, which depends on its enantiomeric purity. To identify the chirality of the HBL produced by the above process, gas chromatography (GC) with flame ionization detection (FID) was applied using a MilliporeSigma® Supelco® ß-Dex 255 capillary GC column containing a chiral stationary phase of 2,3-diO-acetyl-6-0-TBDMS-ß-cyclodextrin. (MilliporeSigma and Supelco are registered trademarks of Merck KGaA of Darmstadt, Germany) This column successfully separated the enantiomers of HBL, although the retention times depended on the solvent in which the HBL was dissolved. Based on the reaction network from glucose to HBL, the chirality should be preserved at the C-5 position (FIG. 1). The reaction product solution was extracted with ethyl acetate, and the organic phase analyzed by GC/FID. […] The partition coefficient of HBL extraction into ethyl acetate was 0.1±0.02, and quantification of the HBL in the ethyl acetate coupled with this partition coefficient leads to an overall yield of HBL from glucose of 90%, which is limited by equilibrium, vide supra. HBL can also be extracted into THE, with a partition coefficient of 1.3±0.5, and propylene carbonate, with a partition coefficient of 0.5±0.1.

Where “and” joins values, the source holds several entries; their conditions need not be identical. Equal values may be shown once.

With `O=C1C(O)=C[C@@H](CO)OC1O` (stereo partly shown) [BPP], the half-life in series [1] came to 3.7 min.

With `O=C1C[C@H](O)CO1` [HBL, (S)-3-hydroxy-γ-butyrolactone], the “partition coefficient of HBL extraction into THF” value in series [2] (THF (printed THE) / aqueous solution) is 1.3 and 1.3±0.5. The “partition coefficient of HBL extraction into ethyl acetate” value in series [2] (ethyl acetate / aqueous reaction product solution) is 0.1 and 0.1±0.02. In addition, in series [2] (propylene carbonate / aqueous solution), the “partition coefficient of HBL extraction into propylene carbonate” value is given as 0.5±0.1.
